Results: patent US5521160A, “Sulfuric acid esters of sugar alcohols” (Hoffmann-La Roche Inc., priority 1994, dated 1996)
Structures can show the parent of a compound that is named as a salt. Where two headings read alike, the source gives them in different places.

Key:
[1] = biological target: T1, Factor Xa (Bos taurus, UniProt P00743); experiment: Inhibition of Factor Xa in the chromogenic substrate assay (blood coagulation inhibition); format: biochemical; conditions: chromogenic substrate S-2222, antithrombin III, plasma; read-out: Anticoagulative Activity IC50 Factor Xa
T1 sequence (P00743 41-180 limits assumed): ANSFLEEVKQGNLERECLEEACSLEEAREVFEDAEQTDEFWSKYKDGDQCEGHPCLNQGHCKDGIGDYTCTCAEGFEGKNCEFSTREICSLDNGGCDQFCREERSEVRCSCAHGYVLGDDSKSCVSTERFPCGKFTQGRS
Procedure: (§1) The blood coagulation-inhibiting activity was determined as follows:
Inhibition of Thrombin or Factor Xa in the Chromogenic Substrate Assay (Teien. et al., Thrombosis Research 10, 399-410 (1977)): The determination was effected in a Cobas-Bio centrifugal automatic spectrophotometer. The buffer solution used consisted of 50 mM Tris buffer, 180 mM NaCl, 7.5 mM EDTA Na2, 1% PEG 6000 and 0.02% Tween 80, pH 8.4. The test solution consisted of 50 μl of buffer, 30 μl of antithrombin III (1 U/ml, Kabi Diagnostica) and 20 μl of plasma which contained various concentrations of test compounds.
The inhibition of Factor Xa was measured in the same manner using a solution of Factor Xa (2.8 nkat/ml) and 2 mM S-2222 (Bz-CO-Ile-Glu-Arg-NH.pNA, Kabi Diagnostica) in water in place of thrombin or S-2238.

[2] = biological target: T2, thrombin (Homo sapiens, UniProt P00734); experiment: biochemical; format: biochemical; conditions: read-out: Anticoagulative Activity IC50 Thrombin
T2 construct: purchased Roche, Basle (Thrombin Reagent)
Procedure: as §1
Inhibition of Thrombin or Factor Xa in the Chromogenic Substrate Assay (Teien. et al., Thrombosis Research 10, 399-410 (1977)): The determination was effected in a Cobas-Bio centrifugal automatic spectrophotometer. The buffer solution used consisted of 50 mM Tris buffer, 180 mM NaCl, 7.5 mM EDTA Na2, 1% PEG 6000 and 0.02% Tween 80, pH 8.4. The test solution consisted of 50 μl of buffer, 30 μl of antithrombin III (1 U/ml, Kabi Diagnostica) and 20 μl of plasma which contained various concentrations of test compounds. 30 μl of sample solution and 20 μl of water with 180 μl of thrombin (1 U/ml, Thrombin Reagent Roche Basle) were added to the test cuvette in the automatic analyzer. After incubation at 37° C. for 240 seconds, 60 μl of S-2238 (H-D-Phe-Pip-Arg-NH.pNA, Kabi Diagnostica, Mondal, Sweden, 0.75 mM in water) and 20 μl of water were added. The liberation of pNA (p-nitroaniline) was followed during 60 seconds at 405 nm in 10 second intervals in comparison to water as the blank.

[3] = system: rat smooth muscle cells; experiment: Antiproliferative activity (growth inhibition of rat smooth muscle cells, relative to heparin); format: cell-based; conditions: 100 μg/ml, 48 hours, relative to heparin 100 μg/ml in same experiment
Procedure: The antiproliferative activity of a substance is expressed as the ri value which is a comparative value to the corresponding activity of heparin and which was determined in cell cultures as follows: rat smooth muscle cells were applied to cell culture plates in a density of 8×10^3 cells/well (medium: DMEM with 10% FCS. Cultivation at 37° C. and 5% CO2). After 4 hours the number of adhered cells was determined and the compounds to be tested (100 μg/ml, dissolved in H2 O) were added. The controls were a) cells to which test compound was not added and b) heparin (100 μg/ml). Subsequently, the cells were incubated for 48 hours and thereafter the cell count was determined once more.
The inhibition i of the cell growth, i.e. the percent reduction in the growth rate of the cells compared to the control, was calculated from these values: [formula] the growth rate μ being calculated as [formula] in which Z is the number of cells.
Finally, ri --the relative inhibitory activity--which expresses the activity of a substance (at 100 μg/ml) in comparison to the activity of heparin in the same concentration in the same experiment, was calculated: [formula]

[4] = chromogenic substrate S-2238, antithrombin III, plasma, pH 8.4, 37° C.

O=C(NC[C@H](OS(=O)(=O)O)[C@@H](OS(=O)(=O)O)[C@H](OS(=O)(=O)O)[C@@H](COS(=O)(=O)O)OS(=O)(=O)O)c1ccc2cc(C(=O)NC[C@H](OS(=O)(=O)O)[C@@H](OS(=O)(=O)O)[C@H](OS(=O)(=O)O)[C@@H](COS(=O)(=O)O)OS(=O)(=O)O)ccc2c1 [Example 1, naphthalene-2,6-dicarboxylic acid bis-(2,3,4,5,6-penta-O-sulfo-D-glucit-1-ylamide) decasodium salt]
IC50 [1]: > 745 µM | IC50 ([2]; pH 8.4): > 745 µM | Antiproliferative Activity ri (relative inhibitory activity compared with heparin) [3]: 0.6

O=C(NC[C@H](OS(=O)(=O)O)[C@@H](OS(=O)(=O)O)[C@H](OS(=O)(=O)O)[C@@H](COS(=O)(=O)O)OS(=O)(=O)O)c1ccc(/C=C\c2ccc(C(=O)NC[C@H](OS(=O)(=O)O)[C@@H](OS(=O)(=O)O)[C@H](OS(=O)(=O)O)[C@@H](COS(=O)(=O)O)OS(=O)(=O)O)cc2)cc1 [Example 3, (Z)-stilbene-4,4'-dicarboxylic acid bis-(2,3,4,5,6-penta-O-sulfo-D-glucit-1-ylamide) decasodium salt]
IC50 [1]: > 717 µM | IC50 [2, 4]: > 717 µM | Antiproliferative Activity ri (relative inhibitory activity compared with heparin) [3]: 1.5

O=C(NC[C@H](OS(=O)(=O)O)[C@@H](OS(=O)(=O)O)[C@H](OS(=O)(=O)O)[C@@H](COS(=O)(=O)O)OS(=O)(=O)O)c1ccc(S(=O)(=O)c2ccc(C(=O)NC[C@H](OS(=O)(=O)O)[C@@H](OS(=O)(=O)O)[C@H](OS(=O)(=O)O)[C@@H](COS(=O)(=O)O)OS(=O)(=O)O)cc2)cc1 [Example 4, 4,4'-sulfonyl-dibenzoic acid bis-(2,3,4,5,6-penta-O-sulfo-D-glucit-1-ylamide) decasodium salt]
IC50 [1]: > 698 µM | IC50 [2, 4]: > 698 µM | Antiproliferative Activity ri (relative inhibitory activity compared with heparin) [3]: 0.3

CC(/C=C/C=C(\C)C(=O)NC[C@H](OS(=O)(=O)O)[C@@H](OS(=O)(=O)O)[C@H](OS(=O)(=O)O)[C@@H](COS(=O)(=O)O)OS(=O)(=O)O)=C\C=C\C=C(C)\C=C\C=C(/C)C(=O)NC[C@H](OS(=O)(=O)O)[C@@H](OS(=O)(=O)O)[C@H](OS(=O)(=O)O)[C@@H](COS(=O)(=O)O)OS(=O)(=O)O [Example 6, (2E,4E,6E,8E,10E,12E,14E)-2,6,11,15-tetramethyl-hexadeca-2,4,6,8,10,12,14-heptaenedicarboxylic acid bis-(2,3,4,5,6-penta-O-sulfo-D-glucit-1-ylamide) decasodium salt]
IC50 [1]: > 687 µM | IC50 [2, 4]: > 687 µM | Antiproliferative Activity ri (relative inhibitory activity compared with heparin) [3]: 1.5

O=C(NC[C@H](OS(=O)(=O)O)[C@@H](OS(=O)(=O)O)[C@H](OS(=O)(=O)O)[C@@H](COS(=O)(=O)O)OS(=O)(=O)O)c1ccc(CCc2ccc(C(=O)NC[C@H](OS(=O)(=O)O)[C@@H](OS(=O)(=O)O)[C@H](OS(=O)(=O)O)[C@@H](COS(=O)(=O)O)OS(=O)(=O)O)cc2)cc1 [Example 10, 4,4'-ethylene-dibenzoic acid bis-(2,3,4,5,6-penta-O-sulfo-D-glucit-1-ylamide) decasodium salt]
IC50 [1]: > 716 µM | IC50 [2, 4]: > 716 µM | Antiproliferative Activity ri (relative inhibitory activity compared with heparin) [3]: 1.5

O=S(=O)(O)OC[C@@H](OS(=O)(=O)O)[C@@H](OS(=O)(=O)O)[C@H](OS(=O)(=O)O)[C@H](CNS(=O)(=O)c1cccc2c(S(=O)(=O)NC[C@H](OS(=O)(=O)O)[C@@H](OS(=O)(=O)O)[C@H](OS(=O)(=O)O)[C@@H](COS(=O)(=O)O)OS(=O)(=O)O)cccc12)OS(=O)(=O)O [Example 11, naphthalene-1,5-disulfonic acid bis-(2,3,4,5,6-penta-O-sulfo-D-glucit-1-ylamide) decasodium salt]
IC50 [1]: > 707 µM | IC50 [2, 4]: > 707 µM | Antiproliferative Activity ri (relative inhibitory activity compared with heparin) [3]: 1.0

O=C(Nc1ccc(OC[C@@H](OS(=O)(=O)O)[C@H](OS(=O)(=O)O)[C@@H](COS(=O)(=O)O)OS(=O)(=O)O)cc1)c1cccc(C(=O)Nc2ccc(OC[C@@H](OS(=O)(=O)O)[C@H](OS(=O)(=O)O)[C@@H](COS(=O)(=O)O)OS(=O)(=O)O)cc2)c1 [Example 12, N,N'-bis-[4-(2,3,4,5-tetra-O-sulfo-D-arabinit-1-yloxy)-phenyl]-isophthalamide octasodium salt]
IC50 [1]: > 795 µM | IC50 [2, 4]: > 795 µM | Antiproliferative Activity ri (relative inhibitory activity compared with heparin) [3]: 0.9

O=C(NC[C@H](OS(=O)(=O)O)[C@@H](OS(=O)(=O)O)[C@H](OS(=O)(=O)O)[C@@H](COS(=O)(=O)O)OS(=O)(=O)O)c1cccc(C(=O)NC[C@H](OS(=O)(=O)O)[C@@H](OS(=O)(=O)O)[C@H](OS(=O)(=O)O)[C@@H](COS(=O)(=O)O)OS(=O)(=O)O)c1 [Example 14, N,N'-bis-(2,3,4,5,6-penta-O-sulfo-D-glucit-1-yl)-isophthalamide decasodium salt]
IC50 [1]: > 773 µM | IC50 [2, 4]: > 773 µM | Antiproliferative Activity ri (relative inhibitory activity compared with heparin) [3]: 0.6

O=C(NC[C@H](OS(=O)(=O)O)[C@@H](OS(=O)(=O)O)[C@H](OS(=O)(=O)O)[C@@H](COS(=O)(=O)O)OS(=O)(=O)O)c1ccc(Cc2ccc(C(=O)NC[C@H](OS(=O)(=O)O)[C@@H](OS(=O)(=O)O)[C@H](OS(=O)(=O)O)[C@@H](COS(=O)(=O)O)OS(=O)(=O)O)cc2)cc1 [Example 16, 4,4'-methylene-dibenzoic acid bis-(2,3,4,5,6-penta-O-sulfo-D-glucit-1-ylamide) decasodium salt]
IC50 [1]: > 723 µM | IC50 [2, 4]: > 723 µM | Antiproliferative Activity ri (relative inhibitory activity compared with heparin) [3]: 0.7

Cc1c(NC(=O)NC[C@H](OS(=O)(=O)O)[C@@H](OS(=O)(=O)O)[C@H](OS(=O)(=O)O)[C@@H](COS(=O)(=O)O)OS(=O)(=O)O)cccc1NC(=O)NC[C@H](OS(=O)(=O)O)[C@@H](OS(=O)(=O)O)[C@H](OS(=O)(=O)O)[C@@H](COS(=O)(=O)O)OS(=O)(=O)O [Example 26, 3,3'-bis-(2,3,4,5,6-penta-O-sulfo-D-glucit-1-yl)-1,1'-(toluene-2,6-diyl)-diurea decasodium salt]
IC50 [1]: > 748 µM | IC50 [2, 4]: > 748 µM | Antiproliferative Activity ri (relative inhibitory activity compared with heparin) [3]: 1.5

O=C(NC[C@H](OS(=O)(=O)O)[C@@H](OS(=O)(=O)O)[C@H](OS(=O)(=O)O)[C@@H](COS(=O)(=O)O)OS(=O)(=O)O)Nc1ccc(NC(=O)c2ccc(C(=O)Nc3ccc(NC(=O)NC[C@H](OS(=O)(=O)O)[C@@H](OS(=O)(=O)O)[C@H](OS(=O)(=O)O)[C@@H](COS(=O)(=O)O)OS(=O)(=O)O)cc3)cc2)cc1 [Example 33, N,N'-bis-[4-[3-(2,3,4,5,6-penta-O-sulfo-D-glucit-1-yl)-ureido]-phenyl]-terephthalamide decasodium salt]
IC50 [1]: > 640 µM | IC50 ([2]; pH 8.4): > 640 µM | Antiproliferative Activity ri (relative inhibitory activity compared with heparin) [3]: 0.8

O=C(/C=C/C(=O)Nc1ccc(NC(=O)NC[C@H](OS(=O)(=O)O)[C@@H](OS(=O)(=O)O)[C@H](OS(=O)(=O)O)[C@@H](COS(=O)(=O)O)OS(=O)(=O)O)cc1)Nc1ccc(NC(=O)NC[C@H](OS(=O)(=O)O)[C@@H](OS(=O)(=O)O)[C@H](OS(=O)(=O)O)[C@@H](COS(=O)(=O)O)OS(=O)(=O)O)cc1 [Example 34, N,N'-bis-[4-[3-(2,3,4,5,6-penta-O-sulfo-D-glucit-1-yl)-ureido]-phenyl]-fumaramide decasodium salt]
IC50 [1]: > 662 µM | IC50 ([2]; pH 8.4): > 662 µM | Antiproliferative Activity ri (relative inhibitory activity compared with heparin) [3]: 0.4

CN(C[C@H](OS(=O)(=O)O)[C@@H](OS(=O)(=O)O)[C@H](OS(=O)(=O)O)[C@@H](COS(=O)(=O)O)OS(=O)(=O)O)C(=O)c1ccc2c(c1)C(=O)c1cc(C(=O)N(C)C[C@H](OS(=O)(=O)O)[C@@H](OS(=O)(=O)O)[C@H](OS(=O)(=O)O)[C@@H](COS(=O)(=O)O)OS(=O)(=O)O)ccc1-2 [Example 37, 9-oxo-9H-fluorene-2,7-dicarboxylic acid bis-[methyl-(2,3,4,5,6-penta-O-sulfo-D-glucit-1yl)-amide] decasodium salt]
IC50 [1]: > 703 µM | IC50 [2, 4]: > 703 µM | Antiproliferative Activity ri (relative inhibitory activity compared with heparin) [3]: 0.7

O=C(/C=C\C(=O)Nc1cc(COc2ccc(-c3ccccc3)cc2)cc(NC(=O)/C=C\C(=O)NC[C@H](OS(=O)(=O)O)[C@@H](OS(=O)(=O)O)[C@H](OS(=O)(=O)O)[C@@H](COS(=O)(=O)O)OS(=O)(=O)O)c1)NC[C@H](OS(=O)(=O)O)[C@@H](OS(=O)(=O)O)[C@H](OS(=O)(=O)O)[C@@H](COS(=O)(=O)O)OS(=O)(=O)O [Example 58, (Z)-butenedioic acid (Z)-[3-biphenyl-4-yloxymethyl-5-[3-(2,3,4,5,6-penta-O-sulfo-D-glucit-1-ylcarbamoyl)-acryloylamino]-phenylamide]-(2,3,4,5,6-penta-O-sulfo-D-glucit-1-yl)-amide decasodium salt]
IC50 [1]: > 620 µM | IC50 [2, 4]: > 620 µM | Antiproliferative Activity ri (relative inhibitory activity compared with heparin) [3]: 2.2

O=C(Nc1ccc(OC[C@@H](OS(=O)(=O)O)[C@H](OS(=O)(=O)O)[C@H](OS(=O)(=O)O)[C@H](COS(=O)(=O)O)OS(=O)(=O)O)cc1)Nc1ccc(OC[C@@H](OS(=O)(=O)O)[C@H](OS(=O)(=O)O)[C@H](OS(=O)(=O)O)[C@H](COS(=O)(=O)O)OS(=O)(=O)O)cc1 [Example 65, 1,3-bis-[4-(2,3,4,5,6-penta-O-sulfo-D-galactit-6-yloxy)-phenyl]-urea decasodium salt]
IC50 [1]: > 728 µM | IC50 [2, 4]: > 728 µM | Antiproliferative Activity ri (relative inhibitory activity compared with heparin) [3]: 0.8
